The results in this text go back to US9365851B2, “Spalt-like transcription factor 4 (SALL4) and uses thereof” (National University of Singapore, priority 2011, dated 2016).

The series has as its system SALL4. Nature of the series: SALL4 RNA knock-down in primary AML cells (qRT-PCR). The class given is cell-based, human. The conditions noted are these: qRT-PCR normalized to GAPDH. An excerpt:
FIG. 6: Down-regulation of SALL4 in primary AML led to cell death. (6A) Down-regulation of SALL4 in primary AML cells. The ability of shRNA constructs 7412 to knock down SALL4 mRNA in AML cells were confirmed by qRT-PCR with normalization to GAPDH. The expression of SALL4 RNA in AML cells that were infected with SALL4 shRNA (7412)-expressing retroviruses was reduced to 35% of those infected with scrambled pRS control vectors, a shRNA pRS against non-effective GFP sequence from OriGene Technologies, Inc., Rockville Md. (N=3, Error Bars: +/−SD). (6B) Increased apoptosis and cell death were observed via flow cytometry in AML cells upon SALL4 knock down by Annexin V/PI staining. Control scrambled shRNA-infected cells and SALL4 shRNA-infected cells were analyzed 24 to 48 h post transduction. Data were derived from four independent experiments. (6C-6F) Leukemia development in xenotransplant recipient mice. AML is defined as blast count more than 20% in peripheral blood and/or bone marrow with multiple organ involvements observed in recipient mice. Blasts were present in liver (6C, ×200), spleen (6D, ×200), and bone marrow (6E, ×200), and were human CD45 positive (6F). […]

On to “GATGCCTTGAAACAAGCCAAGCTACCTCA (chemistry not given here) [compound 7412, SALL4 shRNA used in primary AML cells]”, for which the “SALL4 RNA expression relative to scrambled control” value is reported as 35%.
